Measured values published in PMC5066151 (ACS Medicinal Chemistry Letters, 2016).
pIC50: −log10 of the molar value.

Tests used:
[1] = cited from earlier work
[2] = biological target: T1, recombinant human renin (rh-renin) (Homo sapiens, UniProt P00797); test: Rh-renin inhibition assay; type: biochemical; details: 3R,5S-enantiomer vs 3S,5R-enantiomer; rh-renin or hPRA assay
T1 sequence (P00797 67-406): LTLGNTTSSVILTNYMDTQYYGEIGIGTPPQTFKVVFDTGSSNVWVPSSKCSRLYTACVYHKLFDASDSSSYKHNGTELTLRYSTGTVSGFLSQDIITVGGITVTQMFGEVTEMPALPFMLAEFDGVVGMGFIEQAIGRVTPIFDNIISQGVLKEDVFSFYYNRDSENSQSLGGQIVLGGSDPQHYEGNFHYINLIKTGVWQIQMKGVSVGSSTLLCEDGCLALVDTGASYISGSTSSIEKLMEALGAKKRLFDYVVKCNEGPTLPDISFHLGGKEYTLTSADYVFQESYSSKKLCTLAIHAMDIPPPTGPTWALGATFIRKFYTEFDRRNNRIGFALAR

[3] = biological target: T2, endogenous renin in human plasma (Homo sapiens, UniProt P00797); test: Human plasma renin activity; type: biochemical; details: methoxypropylamino vs furfurylamine S3sp binder (compound 5)
T2 sequence (P00797 67-406): T1 sequence (P00797 67-406)

[4] = Pharmacokinetic analysis in rat cassette dosing; type: in vivo; details: 1 mg/kg p.o., n = 3
[5] = biological target: pepsin (Homo sapiens, UniProt P0DJD8); test: Selectivity against aspartic protease pepsin; type: biochemical
Sequence of pepsin (P0DJD8 63-388): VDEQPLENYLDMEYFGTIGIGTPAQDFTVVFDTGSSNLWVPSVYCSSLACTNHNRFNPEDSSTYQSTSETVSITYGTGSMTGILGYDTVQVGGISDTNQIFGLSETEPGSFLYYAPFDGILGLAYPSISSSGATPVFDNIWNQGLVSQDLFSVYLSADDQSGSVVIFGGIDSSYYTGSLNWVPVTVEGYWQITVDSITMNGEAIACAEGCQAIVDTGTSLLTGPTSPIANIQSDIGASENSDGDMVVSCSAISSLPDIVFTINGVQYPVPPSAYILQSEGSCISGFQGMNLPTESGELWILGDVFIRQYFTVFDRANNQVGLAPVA

[6] = system: human-angiotensinogen and human-renin double transgenic rats (dTg rat); test: Antihypertensive effect, systolic blood pressure by tail-cuff in dTg rat model

In the case of `CC(C)CN(C(=O)c1cnc(C(C)(C)C)nc1NCc1ccco1)[C@H]1CCCNC1` [Compound 1], the “oral bioavailability in rats” value [1] is given as 13.8%.
For `COC(=O)[C@H]1CNC[C@@H](N(CC(C)C)C(=O)c2cnc(C(C)(C)C)nc2NCc2ccco2)C1` [Compound 5], the “fold more potent toward renin than its enantiomer 4” value [2] was “about 30 fold”.
For `COCCCNc1nc(C(C)(C)C)ncc1C(=O)N(CC(C)C)[C@@H]1CNC[C@H](C(=O)OC)C1` [Compound 6], the “fold decrease in renin inhibitory activity relative to the furfurylamine moiety” value [3] was 10 fold.
With `COCCCNc1nc(C(C)(C)C)ncc1C(=O)N(CC(C)C)[C@@H]1CNC[C@H](C(=O)N2CCOCC2)C1` [Compound 8] the AUCpo [4] was “not detected”.
With `COCCCCn1c(C(=O)N(CC(C)C)[C@@H]2CNC[C@H](C(=O)N3CCOCC3)C2)nc2ccccc21.Cl` [Compound 10, 1-(4-methoxybutyl)-N-(2-methylpropyl)-N-[(3S,5R)-5-(morpholin-4-yl)carbonylpiperidin-3-yl]-1H-benzimidazole-2-carboxamide hydrochloride] the pIC50 [5] was < 5.00, the “antihypertensive efficacy (SBP) compared with aliskiren 75 mg/kg” value ([6]; 3 mg/kg p.o., 5 h after oral administration) was “comparable to that of aliskiren” and the “antihypertensive efficacy (SBP) compared with aliskiren 75 mg/kg” value ([6]; 10 mg/kg p.o., 5 and 24 h after administration) was “exceeded that of aliskiren”. The “antihypertensive efficacy (SBP)” value ([6]; 3 and 10 mg/kg p.o., SBP at 5 and 24 h) was “potent and long-lasting antihypertensive efficacy in a dose-dependent manner”.
